# Active and inactive are the calls of the source. The rule behind the calls is not given here.
# What was measured:
# Proteus mirabilis [1] = assay: Inhibition of Proteus mirabilis NDM1 assessed as potentiation of meropenem-induced antibacterial activity by measuring meropenem MIC at 64 ug/ml after 16 to 18 hrs by broth microdilution method (reference value: 20 to 160 ug/ml)
# Escherichia coli [2] = assay: Inhibition of Escherichia coli IMP4 assessed as potentiation of meropenem-induced antibacterial activity by measuring zone of inhibition at 10 uL after 16 to 18 hrs by disc diffusion method (reference value: 9.8 +/- 0.6 millimeter)
# Citrobacter freundii [3] = assay: Inhibition of Citrobacter freundii NDM1 assessed as potentiation of meropenem-induced antibacterial activity by measuring meropenem MIC at 64 ug/ml after 16 to 18 hrs by broth microdilution method (reference value: 20 ug/ml)
# [4] = target: T1, Metallo-beta-lactamase NDM-4 (Escherichia coli) (UniProt H6WZS9); assay: Inhibition of Escherichia coli NDM4 assessed as potentiation of meropenem-induced antibacterial activity by measuring zone of inhibition at 10 uL after 16 to 18 hrs by disc diffusion method (reference value: 9.6 +/- 0.5 millimeter)
# T1 sequence (whole entry): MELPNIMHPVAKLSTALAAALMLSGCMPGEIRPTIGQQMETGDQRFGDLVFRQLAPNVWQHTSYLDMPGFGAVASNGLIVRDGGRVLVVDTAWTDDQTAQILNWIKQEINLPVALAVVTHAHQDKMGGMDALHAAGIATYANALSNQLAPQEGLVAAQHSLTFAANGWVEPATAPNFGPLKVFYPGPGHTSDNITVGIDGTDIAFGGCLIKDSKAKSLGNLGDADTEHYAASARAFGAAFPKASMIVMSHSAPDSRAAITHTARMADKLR
# [5] = target: Beta-lactamase (Klebsiella pneumoniae) (UniProt Q4LDF1)
# [6] = target: Beta-lactamase NDM-1 (Escherichia coli) (UniProt E5KIY2)
# Escherichia coli [7] = assay: Inhibition of Escherichia coli IMP4 assessed as potentiation of meropenem-induced antibacterial activity by measuring meropenem MIC at 64 ug/ml after 16 to 18 hrs by broth microdilution method (reference value: 20 to 160 ug/ml)
# [8] = target: Metallo-beta-lactamase type 2 (Klebsiella pneumoniae) (UniProt C7C422)
# Proteus mirabilis [9] = assay: Inhibition of Proteus mirabilis NDM1 assessed as potentiation of meropenem-induced antibacterial activity by measuring fold reduction in meropenem MIC at 64 ug/ml after 16 to 18 hrs by broth microdilution method relative to meropenem alone
# Erythrocyte = assay: Hemolytic activity against sheep RBC at 1.953 to 1000 ug/ml after 1 hr; type: ADME, cell-based, Ovis aries
# HeLa [10] = assay: Cytotoxicity against human HeLa cells at 32 ug/ml after 24 hrs by calcein-AM/propidium iodide staining based fluorescence microscopic analysis; type: cell-based
# Escherichia coli [11] = assay: Inhibition of Escherichia coli IMP4 assessed as potentiation of meropenem-induced bactericidal activity by measuring bacterial count at 8 times MIC incubated for 24 hrs followed by replating on agar plates and further incubated for 16 to 18 hrs measured for 24 hrs by time kill assay
# HeLa [12] = assay: Cytotoxicity against human HeLa cells after 24 hrs by CCK8 assay; type: cell-based
# Escherichia coli [13] = assay: Toxicity against Escherichia coli harboring NDM1 after 16 to 18 hrs by broth microdilution method; type: organism-based
# Escherichia coli [14] = assay: Toxicity against Escherichia coli harboring IMP4 assessed as reduction in bacterial growth after 16 to 18 hrs by broth microdilution method; type: organism-based
# Escherichia coli [15] = assay: Inhibition of Escherichia coli IMP4 assessed as potentiation of meropenem-induced bactericidal activity by measuring reduction in bacterial colonies at 4 to 8 times MIC incubated for 3 hrs followed by replating on agar plates and further incubated for 16 to 18 hrs measured for 24 hrs by time kill assay
# [16] = target: Beta-lactamase NDM-1 (Escherichia coli) (UniProt E5KIY2); remark: listed apart in the source
# Escherichia coli [17] = assay: Inhibition of Escherichia coli IMP4 assessed as potentiation of meropenem-induced antibacterial activity by measuring reduction in bacterial growth at 64 ug/ml after 16 to 18 hrs in presence of ZnCl2 by broth microdilution method
# Escherichia coli [18] = assay: Inhibition of Escherichia coli IMP4 assessed as potentiation of meropenem-induced antibacterial activity by measuring bacterial growth at 64 ug/ml after 16 to 18 hrs by broth microdilution method (reference value: 93.43 +/- 2.12%); design: scale not given: the % may be the effect or the level left
# Citrobacter freundii [19] = assay: Inhibition of Citrobacter freundii NDM1 assessed as potentiation of meropenem-induced antibacterial activity by measuring fold reduction in meropenem MIC at 64 ug/ml after 16 to 18 hrs by broth microdilution method relative to meropenem alone
# Escherichia coli [20] = assay: Inhibition of Escherichia coli IMP4 assessed as potentiation of meropenem-induced bactericidal activity by measuring reduction in bacterial colonies at 8 times MIC incubated up to 8 hrs followed by replating on agar plates and further incubated for 16 to 18 hrs measured for 24 hrs by time kill assay
# Escherichia coli [21] = assay: Inhibition of Escherichia coli IMP4 assessed as potentiation of meropenem-induced bactericidal activity by measuring bacterial count at 4 times MIC incubated for 24 hrs followed by replating on agar plates and further incubated for 16 to 18 hrs measured for 24 hrs by time kill assay
# [22] = target: Beta-lactamase NDM-1 (Escherichia coli) (UniProt E5KIY2); remark: listed apart in the source
# Escherichia coli [23] = assay: Inhibition of Escherichia coli IMP4 assessed as potentiation of meropenem-induced bactericidal activity by measuring reduction in bacterial colonies at 8 times MIC incubated up to 3 hrs followed by replating on agar plates and further incubated for 16 to 18 hrs measured for 24 hrs by time kill assay
# Escherichia coli [24] = assay: Inhibition of Escherichia coli IMP4 assessed as potentiation of meropenem-induced bactericidal activity by measuring bacterial count at 4 times MIC incubated for 8 hrs followed by replating on agar plates and further incubated for 16 to 18 hrs measured for 24 hrs by time kill assay
SMILES,MIC (Proteus mirabilis [1]),inhibition zone (IZ) (Escherichia coli [2]),MIC (Citrobacter freundii [3]),inhibition zone (IZ) [4],MIC [5],MIC [6],MIC (Escherichia coli [7]),MIC [8],also measured
S=C([S-])N1CCCC1.[Na+],2 to 8 µg/mL,22.8 mm,–,22.1 mm,< 0.0312 µg/mL,2 µg/mL,< 16 µg/mL,< 0.0312 µg/mL,fold change (FC) (Proteus mirabilis [9]): < 320; Activity (Erythrocyte): Non-Toxic; Activity (HeLa [10]): Non-Toxic; Activity (Escherichia coli [11]): 9 to 10 log10CFU/ml; IC50 (HeLa [12]): 349 µg/mL; MIC (Escherichia coli [13]): > 128 µg/mL; Activity (Escherichia coli [14]): Non-Toxic
CCCCCCCCCCCCCCNC(=S)S,inactive,inactive,inactive,inactive,inactive,inactive,inactive,inactive,–
CCN(CC)C(=S)[S][Na] [DITIOCARB SODIUM],–,–,–,–,–,–,–,–,Activity (Erythrocyte): Non-Toxic; Activity (HeLa [10]): Non-Toxic; MIC (Escherichia coli [13]): > 128 µg/mL; Activity (Escherichia coli [14]): Non-Toxic
S=C([S-])N1CCCCC1.[Na+],4 to 16 µg/mL,24.2 mm,–,23.9 mm,< 0.0312 µg/mL,0.25 µg/mL,< 16 µg/mL,< 0.0312 µg/mL,fold change (FC) (Proteus mirabilis [9]): < 320; Activity (Erythrocyte): Non-Toxic; MBC [16]: < 0.0312 µg/mL; Activity (HeLa [10]): Non-Toxic; Activity (Escherichia coli [17]): inactive; IC50 (HeLa [12]): 634 µg/mL; Activity (Escherichia coli [18]): 3.55%; MIC (Escherichia coli [13]): > 128 µg/mL; Activity (Escherichia coli [14]): Non-Toxic; fold change (FC) (Citrobacter freundii [19]): < 320; Activity (Escherichia coli [20]): Active; Activity (Escherichia coli [21]): 1 to 2 log10CFU/ml; MBC [22]: 1 µg/mL
S=C(S)N1CCOCC1,16 µg/mL,–,2 µg/mL,–,8 to 16 µg/mL,8 µg/mL,2 to 16 µg/mL,4 to 16 µg/mL,–

# The next lines start with results.
MIC (Proteus mirabilis [1]),inhibition zone (IZ) (Escherichia coli [2]),MIC (Citrobacter freundii [3]),inhibition zone (IZ) [4],MIC [5],MIC [6],MIC (Escherichia coli [7]),MIC [8],SMILES,also measured
8 to 16 µg/mL,inactive,8 µg/mL,inactive,16 µg/mL,8 µg/mL,4 to 16 µg/mL,8 to 16 µg/mL,CCCCCCN(CCCCCC)C(=S)S,–
–,20.3 mm,–,22.9 mm,–,–,–,–,O=C(O)CN1CCN(CC(=O)O)CCN(CC(=O)O)CC1,Activity (Escherichia coli [15]): Active
4 to 8 µg/mL,inactive,2 µg/mL,inactive,8 to 16 µg/mL,8 to 16 µg/mL,4 to 16 µg/mL,4 to 16 µg/mL,S=C(S)N1CCN(C(=S)S)CC1,–
0.25 µg/mL,inactive,inactive,inactive,16 µg/mL,16 µg/mL,2 to 16 µg/mL,inactive,CCCCCCNC(=S)S,–
0.5 to 4 µg/mL,17.2 mm,< 0.0312 µg/mL,18.9 mm,< 2 µg/mL,1 to 16 µg/mL,< 16 µg/mL,< 2 µg/mL,CCN(CC)C(=S)[S-].[Na+] [DITIOCARB SODIUM],IC50 (HeLa [12]): > 1280 µg/mL; Activity (Escherichia coli [23]): Active; Activity (Escherichia coli [24]): 3 to 4 log10CFU/ml
2 to 4 µg/mL,inactive,4 µg/mL,inactive,< 1 µg/mL,4 to 16 µg/mL,1 to 8 µg/mL,1 to 8 µg/mL,CCCCCCCCN(CCCCCCCC)C(=S)S,–

# Reference: ChEMBL document CHEMBL4265960, “Dithiocarbamates: Efficient metallo-β-lactamase inhibitors with good antibacterial activity when combined with meropenem” (Bioorg Med Chem Lett, 2018)
